For twelve compounds, EC50, Dmax and DC50 results are on record in patent publication US20250243180A1, “TARGETED PROTEIN DEGRADATION” (Monte Rosa Therapeutics AG, priority 2023, published 2025).

One experiment addresses CRBN-DDB1 (Homo sapiens (Human), UniProt Q96SW2). In words: Compound binding to CRBN by HTRF assay. The procedure, abridged: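 HTRF displacement of Cy5-thalidomide probe (100 nM) from His-tagged CRBN-DDB1 (2.5 nM) with anti-His terbium cryptate, in HEPES/NaCl/TCEP/EDTA/Tween20 buffer; 11-point 1:3 dilution series, 30 min at ambient temperature. Signal (665/620 nm) normalized to lenalidomide and DMSO controls; EC50 fitted, Ki by Cheng-Prusoff from geometric mean EC50.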
(In TR-FRET formats the signal depends on donor and acceptor labels being close together.)

A further experiment deals with NEK7 (Homo sapiens (Human), UniProt Q8TDX7+Q96SW2). In words: NEK7 NanoBiT degradation assay in Cal51 NEK7 NanoBiT cell line. It is filed as cell-based. The conditions noted are these: Cal51 NEK7 NanoBiT cells, 24 hours; for Dmax: CAL-51. Summed up: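 Cal51 cells with CRISPR knock-in HiBiT-tagged endogenous NEK7 plus stable LgBiT, in live-cell Endurazine medium, seeded 16 h before dosing. Compounds at final 1 μM to 0.05 nM for 24 h at 37 °C, then luminescence read. Response normalized to plate controls and fitted with a 4-parameter logistic giving EC50.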
NEK7, sequence (Q8TDX7 whole entry): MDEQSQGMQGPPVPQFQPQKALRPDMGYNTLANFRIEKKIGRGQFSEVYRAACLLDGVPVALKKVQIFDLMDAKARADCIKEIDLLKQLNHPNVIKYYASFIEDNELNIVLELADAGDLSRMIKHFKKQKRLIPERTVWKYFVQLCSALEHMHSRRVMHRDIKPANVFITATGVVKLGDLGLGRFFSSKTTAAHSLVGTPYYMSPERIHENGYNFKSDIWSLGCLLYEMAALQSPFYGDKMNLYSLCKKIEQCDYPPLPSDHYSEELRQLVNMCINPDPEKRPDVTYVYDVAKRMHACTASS
NEK7, sequence (Q96SW2 whole entry): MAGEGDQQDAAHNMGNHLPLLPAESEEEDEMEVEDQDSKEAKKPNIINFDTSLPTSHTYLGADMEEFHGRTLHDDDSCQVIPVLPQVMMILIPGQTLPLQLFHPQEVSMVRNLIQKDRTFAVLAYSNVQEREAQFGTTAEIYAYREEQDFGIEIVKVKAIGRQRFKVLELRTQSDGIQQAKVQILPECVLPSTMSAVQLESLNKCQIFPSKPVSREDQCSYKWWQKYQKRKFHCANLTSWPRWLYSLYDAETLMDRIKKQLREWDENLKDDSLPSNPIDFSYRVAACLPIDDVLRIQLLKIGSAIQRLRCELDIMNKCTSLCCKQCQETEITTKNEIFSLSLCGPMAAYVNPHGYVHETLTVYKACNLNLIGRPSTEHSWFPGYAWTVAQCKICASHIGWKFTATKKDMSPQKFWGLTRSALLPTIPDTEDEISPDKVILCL
NEK7, sequence (Q16531 2-1140 partner): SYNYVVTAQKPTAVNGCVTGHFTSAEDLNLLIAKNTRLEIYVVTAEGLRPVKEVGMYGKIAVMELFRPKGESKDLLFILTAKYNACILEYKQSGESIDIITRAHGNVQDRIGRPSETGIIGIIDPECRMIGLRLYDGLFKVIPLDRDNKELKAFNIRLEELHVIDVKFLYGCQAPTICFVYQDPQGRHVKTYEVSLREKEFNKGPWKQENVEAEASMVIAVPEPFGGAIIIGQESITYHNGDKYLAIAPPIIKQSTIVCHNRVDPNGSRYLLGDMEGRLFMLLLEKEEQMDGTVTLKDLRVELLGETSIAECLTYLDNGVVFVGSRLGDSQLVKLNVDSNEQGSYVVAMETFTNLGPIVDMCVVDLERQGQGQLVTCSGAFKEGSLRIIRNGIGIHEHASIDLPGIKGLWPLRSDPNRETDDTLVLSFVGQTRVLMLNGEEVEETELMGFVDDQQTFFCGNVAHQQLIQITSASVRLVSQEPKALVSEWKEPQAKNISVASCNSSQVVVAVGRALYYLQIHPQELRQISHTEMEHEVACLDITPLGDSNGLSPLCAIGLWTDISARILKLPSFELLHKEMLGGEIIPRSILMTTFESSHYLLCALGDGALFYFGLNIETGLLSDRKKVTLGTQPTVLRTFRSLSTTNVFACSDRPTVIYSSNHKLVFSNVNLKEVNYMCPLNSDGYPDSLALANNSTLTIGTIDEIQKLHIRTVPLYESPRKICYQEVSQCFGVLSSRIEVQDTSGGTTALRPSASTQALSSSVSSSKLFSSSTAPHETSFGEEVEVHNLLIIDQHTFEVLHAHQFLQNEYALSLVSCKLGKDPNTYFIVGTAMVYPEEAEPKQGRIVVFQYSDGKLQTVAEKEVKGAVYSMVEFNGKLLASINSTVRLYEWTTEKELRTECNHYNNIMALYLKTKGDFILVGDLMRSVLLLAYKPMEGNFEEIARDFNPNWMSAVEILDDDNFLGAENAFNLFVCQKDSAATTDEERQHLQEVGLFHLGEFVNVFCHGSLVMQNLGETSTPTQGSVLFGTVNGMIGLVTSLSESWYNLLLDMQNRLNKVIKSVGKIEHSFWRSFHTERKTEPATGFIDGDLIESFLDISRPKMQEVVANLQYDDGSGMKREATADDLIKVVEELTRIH

Where [1] appears, read: NEK7 degradation, read-out: NanoBiT Dmax.
The mark [2] stands for this setting: NEK7 degradation, read-out: NanoBiT DC50.

The structures appear in SMILES notation. Where two headings read alike, the source gives them in different places.

CRBN-DDB1, sequence (Q96SW2 whole entry): as the sequence (Q96SW2 whole entry) above
CRBN-DDB1, sequence (Q16531 whole entry partner): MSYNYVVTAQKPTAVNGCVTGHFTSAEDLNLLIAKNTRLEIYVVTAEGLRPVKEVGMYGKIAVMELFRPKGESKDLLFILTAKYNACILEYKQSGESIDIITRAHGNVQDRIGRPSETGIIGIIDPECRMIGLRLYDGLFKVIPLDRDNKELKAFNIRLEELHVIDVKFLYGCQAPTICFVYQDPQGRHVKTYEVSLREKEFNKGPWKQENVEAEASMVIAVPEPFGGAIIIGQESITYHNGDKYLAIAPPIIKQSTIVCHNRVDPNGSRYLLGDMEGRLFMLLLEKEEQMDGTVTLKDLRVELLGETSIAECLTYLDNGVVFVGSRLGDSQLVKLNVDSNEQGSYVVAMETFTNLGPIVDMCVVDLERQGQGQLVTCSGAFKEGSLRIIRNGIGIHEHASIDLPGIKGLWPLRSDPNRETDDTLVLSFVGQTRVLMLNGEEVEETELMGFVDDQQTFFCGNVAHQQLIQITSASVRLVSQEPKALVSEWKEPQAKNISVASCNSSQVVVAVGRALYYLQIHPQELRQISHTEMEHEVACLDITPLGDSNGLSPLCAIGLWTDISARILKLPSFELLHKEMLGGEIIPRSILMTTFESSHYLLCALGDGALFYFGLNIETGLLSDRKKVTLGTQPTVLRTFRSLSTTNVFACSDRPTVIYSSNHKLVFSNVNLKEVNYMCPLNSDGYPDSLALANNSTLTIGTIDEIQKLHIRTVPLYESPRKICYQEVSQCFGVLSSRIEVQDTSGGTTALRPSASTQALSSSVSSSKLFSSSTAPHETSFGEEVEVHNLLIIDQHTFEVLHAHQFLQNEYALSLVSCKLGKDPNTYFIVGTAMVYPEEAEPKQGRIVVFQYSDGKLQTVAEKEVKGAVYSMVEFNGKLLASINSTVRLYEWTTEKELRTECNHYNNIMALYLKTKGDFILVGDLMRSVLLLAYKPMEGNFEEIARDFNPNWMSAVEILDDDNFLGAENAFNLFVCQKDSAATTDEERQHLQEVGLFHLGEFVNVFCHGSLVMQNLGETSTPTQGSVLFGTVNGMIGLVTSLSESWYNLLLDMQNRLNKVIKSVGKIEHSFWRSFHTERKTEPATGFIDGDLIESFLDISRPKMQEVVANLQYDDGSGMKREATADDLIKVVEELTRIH

What is called EC50 is the concentration at which the effect is half-maximal. Higher therefore signals lower potency in that assay. By Dmax is commonly meant the greatest extent of degradation seen. The term DC50 denotes the concentration giving 50% degradation. Regarding `CC(C)(C(=O)NCc1cc(Cl)c(C2CCC(=O)NC2=O)c(Cl)c1)c1cc(F)c(S(N)(=O)=O)c(F)c1` (stereo not drawn) [Compound 36, N-(3,5-dichloro-4-(2,6-dioxopiperidin-3-yl)benzyl)-2-(3,5-difluoro-4-sulfamoylphenyl)-2-methylpropanamide], the EC50 at CRBN-DDB1 is 80 nM; on CRBN-DDB1 (HTRF class, Cereblon binding) it was not above 100 nM. Further, the values for the Dmax on NEK7 (read-out: NEK7 NanoBiT Dmax) and on NEK7 (setting [1]) were 95% and more than 75%, respectively. Moreover, the DC50 at NEK7 (read-out: NEK7 NanoBiT DC50) is 5 nM; on NEK7 (setting [2]), not above 100 nM.

In the case of `Cc1cc(C(C)(C)C(=O)NCc2cc(Cl)c(C3CCC(=O)NC3=O)c(Cl)c2)cc(=O)n1C` (stereo not drawn) [Compound 53], the EC50 at CRBN-DDB1 was 190 nM; at CRBN-DDB1 (HTRF class, Cereblon binding) it was 100 to 1000 nM. For the same compound, the Dmax at NEK7 (read-out: NEK7 NanoBiT Dmax) was 92%; on NEK7 (setting [1]) it was more than 75%. The DC50 on NEK7 (read-out: NEK7 NanoBiT DC50) is 11 nM; on NEK7 (setting [2]) it was not above 100 nM.

Regarding `CC(C)(C(=O)NCc1cc(Cl)c(C2CCC(=O)NC2=O)c(Cl)c1)c1nccc(C2CC2)n1` (stereo not drawn) [Compound 168], the EC50 on CRBN-DDB1 is 150 nM; at CRBN-DDB1 (HTRF class, Cereblon binding) it was 100 to 1000 nM. The values for the Dmax on NEK7 (read-out: NEK7 NanoBiT Dmax) and on NEK7 (setting [1]) were 57% and 50 to 75%, respectively. In addition, the DC50 was 137 nM on NEK7 (read-out: NEK7 NanoBiT DC50) and 100 to 1000 nM at NEK7 (setting [2]).

For `Cc1cc(C(C)(C)C(=O)NCc2cc(Cl)c(C3CCC(=O)NC3=O)c(Cl)c2)cc(C)n1` (stereo not drawn) [Compound 86], the EC50 is 160 nM on CRBN-DDB1 and 100 to 1000 nM on CRBN-DDB1 (HTRF class, Cereblon binding). Further, the results for the Dmax at NEK7 (read-out: NEK7 NanoBiT Dmax) and on NEK7 (setting [1]) were 85% and more than 75%, respectively. Also, the DC50 at NEK7 (read-out: NEK7 NanoBiT DC50) was 21 nM; on NEK7 (setting [2]), not above 100 nM.

For `Cn1ncc2ccc(C3(C(=O)NCc4cc(Cl)c(C5CCC(=O)NC5=O)c(Cl)c4)CCOCC3)cc21` (stereo not drawn) [Compound 133], the EC50 on CRBN-DDB1 was 30 nM; at CRBN-DDB1 (HTRF class, Cereblon binding), not above 100 nM. Further, the Dmax at NEK7 (read-out: NEK7 NanoBiT Dmax) was 94%; at NEK7 (setting [1]), more than 75%. In addition, the DC50 at NEK7 (read-out: NEK7 NanoBiT DC50) is 2 nM; at NEK7 (setting [2]), not above 100 nM.

As for `CC(C)(C(=O)NCc1cc(Cl)c(C2CCC(=O)NC2=O)c(Cl)c1)c1ccc2ncsc2c1` (stereo not drawn) [Compound 74], the EC50 is 30 nM at CRBN-DDB1 and not above 100 nM on CRBN-DDB1 (HTRF class, Cereblon binding). Further, the Dmax on NEK7 (read-out: NEK7 NanoBiT Dmax) was 97%; on NEK7 (setting [1]), more than 75%. Further, the DC50 is 1 nM at NEK7 (read-out: NEK7 NanoBiT DC50) and not above 100 nM on NEK7 (setting [2]).

With `Cc1nc(C(C)(C)C(=O)NCc2cc(Cl)c(C3CCC(=O)NC3=O)c(Cl)c2)oc1C` (stereo not drawn) [Compound 212], the EC50 on CRBN-DDB1 is 70 nM; at CRBN-DDB1 (HTRF class, Cereblon binding) it was not above 100 nM. Further, the maximal degradation (Dmax) at NEK7 (read-out: NEK7 NanoBiT Dmax) was 90%; at NEK7 (setting [1]) it was more than 75%. Moreover, the figures for the DC50 on NEK7 (read-out: NEK7 NanoBiT DC50) and on NEK7 (setting [2]) were 6 nM and not above 100 nM, respectively.

In the case of `CC(C)(C(=O)NCc1cc(F)c(C2CCC(=O)NC2=O)c(Cl)c1)c1nc2ccccc2o1` (stereo not drawn) [Compound 249], the EC50 was 70 nM on CRBN-DDB1 and not above 100 nM on CRBN-DDB1 (HTRF class, Cereblon binding). The Dmax on NEK7 (read-out: NEK7 NanoBiT Dmax) is 87%; on NEK7 (setting [1]) it was more than 75%. For the same compound, the DC50 on NEK7 (read-out: NEK7 NanoBiT DC50) is 7 nM; at NEK7 (setting [2]), not above 100 nM.

As for `CC(C)(C(=O)NCc1cc(Cl)c(C2CCC(=O)NC2=O)c(Cl)c1)c1ccno1` (stereo not drawn) [Compound 120, N-(3,5-dichloro-4-(2,6-dioxopiperidin-3-yl)benzyl)-2-(isoxazol-5-yl)-2-methylpropanamide], the EC50 on CRBN-DDB1 is 100 nM; on CRBN-DDB1 (HTRF class, Cereblon binding), not above 100 nM. Besides, the Dmax at NEK7 (read-out: NEK7 NanoBiT Dmax) was 68%; on NEK7 (setting [1]), 50 to 75%. The figures for the DC50 at NEK7 (read-out: NEK7 NanoBiT DC50) and at NEK7 (setting [2]) were 61 nM and not above 100 nM, respectively.

Turning to `CC(C)(C(=O)NCc1cc(Cl)c(C2CCC(=O)NC2=O)c(Cl)c1)c1ccon1` (stereo not drawn) [Compound 121], the EC50 is 290 nM on CRBN-DDB1 and 100 to 1000 nM at CRBN-DDB1 (HTRF class, Cereblon binding). The Dmax at NEK7 (read-out: NEK7 NanoBiT Dmax) was 80%; on NEK7 (setting [1]), more than 75%. The DC50 at NEK7 (read-out: NEK7 NanoBiT DC50) was 30 nM; at NEK7 (setting [2]), not above 100 nM.

Take `CC(C)(C(=O)NCc1cc(F)c(C2CCC(=O)NC2=O)c(Cl)c1)c1cnc(OC(F)(F)F)cn1` (stereo not drawn) [Compound 264]: the EC50 at CRBN-DDB1 is 130 nM; on CRBN-DDB1 (HTRF class, Cereblon binding) it was 100 to 1000 nM. Besides, the Dmax on NEK7 (read-out: NEK7 NanoBiT Dmax) is 68%; on NEK7 (setting [1]), 50 to 75%. The values for the DC50 at NEK7 (read-out: NEK7 NanoBiT DC50) and at NEK7 (setting [2]) were 100 nM and not above 100 nM, respectively.

In the case of `CC(C)(C(=O)NCc1cc(Cl)c([C@]2(F)CCC(=O)NC2=O)c(Cl)c1)c1ccccc1` (single isomer, unassigned) [Compound 273], the EC50 at CRBN-DDB1 is 250 nM; at CRBN-DDB1 (HTRF class, Cereblon binding), 100 to 1000 nM. The Dmax at NEK7 (read-out: NEK7 NanoBiT Dmax) was 70%; at NEK7 (setting [1]), 50 to 75%. Moreover, the DC50 is 136 nM on NEK7 (read-out: NEK7 NanoBiT DC50) and 100 to 1000 nM at NEK7 (setting [2]).
